For 2 molecules, Activity results are on record in ChEMBL document CHEMBL4334438, “Discovery of novel glycogen synthase kinase-3α inhibitors: Structure-based virtual screening, preliminary SAR and biological evaluation for treatment of acute myeloid leukemia” (Eur J Med Chem, 2019).

Assay [1] concerns the target Serine/threonine-protein kinase N2 (Homo sapiens) (UniProt Q16513). Kind of assay: Inhibition of recombinant human PRK2 (501 to end residues) assessed as residual activity at 1 uM using AKRRRLSSLRA as substrate measured after 40 mins in presence of [gamma33P]ATP by scintillation counting method relative to control.
For assay [2], the system named is Proto-oncogene tyrosine-protein kinase receptor Ret (Homo sapiens), P07949 [V804L]. Briefly: Inhibition of recombinant human Ret V804L mutant (658 to end residues) assessed as residual activity at 1 uM using KKKSPGEYVNIEFG as substrate measured after 40 mins in presence of [gamma33P]ATP by scintillation counting method relative to control.
The target in assay [3] is Misshapen-like kinase 1 (Homo sapiens) (UniProt Q8N4C8). Kind of assay: Inhibition of recombinant human MINK (1 to 310 residues) assessed as residual activity at 1 uM using myelin basic protein as substrate measured after 40 mins in presence of [gamma33P]ATP by scintillation counting method.
Assay [4] has as its target Tyrosine-protein kinase HCK (Homo sapiens) (UniProt P08631). Briefly: Inhibition of human HCK (230 to 497 residues) assessed as residual activity at 1 uM using KVEKIGEGTYGVVYK as substrate after 40 mins by [gamma-33ATP] radiometric assay relative to control.
Assay [5] deals with 5'-AMP-activated protein kinase catalytic subunit alpha-2 (Homo sapiens) (UniProt P54646). Briefly: Inhibition of recombinant full length human AMPKalpha2 assessed as residual activity at 1 uM using AMARAASAAALAR as substrate incubated for 40 mins in presence of [gamma-33ATP] by scintillation counting based radiometry assay relative to control.
Assay [6] has as its system Hepatocyte growth factor receptor (Homo sapiens), P08581 [D1228H]. Briefly: Inhibition of recombinant human MET A1209G/V1290L/D1246H mutant (974 to end residues) assessed as residual activity at 1 uM using KKKGQEEEYVFIE as substrate incubated for 40 mins in presence of [gamma-33ATP by scintillation counting based radiometry assay relative to control.
Assay [7] concerns the target Dual specificity mitogen-activated protein kinase kinase 6 (Homo sapiens) (UniProt P52564). Kind of assay: Inhibition of recombinant human MKK6 (4 to end residues) assessed as residual activity at 1 uM using unactive SAPK2a as substrate measured after 40 mins in presence of [gamma33P]ATP by scintillation counting method.
For assay [8], the target named is Serine/threonine-protein kinase SIK1 (Homo sapiens) (UniProt P57059). Briefly: Inhibition of recombinant human SIK (1 to 281 residues) assessed as residual activity at 1 uM using AMARAASAAALARRR as substrate measured after 40 mins in presence of [gamma33P]ATP by scintillation counting method assay relative to control.
Assay [9] deals with Serine/threonine-protein kinase 35 (Homo sapiens) (UniProt Q8TDR2). Briefly: Inhibition of recombinant full length human CLIK1 assessed as residual activity at 1 uM using RSRSRSRSRSRS as substrate incubated 40 mins in presence of [gamma-33ATP] by scintillation counting based radiometry assay relative to control.
In assay [10] the target is Serine/threonine-protein kinase PAK 3 (Homo sapiens) (UniProt O75914). Kind of assay: Inhibition of recombinant full-length human PAK3 assessed as residual activity at 1 uM using RRRLSFAEPG as substrate measured after 40 mins in presence of [gamma33P]ATP by scintillation counting method relative to control.
Assay [11] deals with Insulin receptor-related protein (Homo sapiens) (UniProt P14616). Briefly: Inhibition of human IRR (943 to 1266 residues) assessed as residual activity at 1 uM using myelin basic protein as substrate after 40 mins by [gamma-33ATP] radiometric assay relative to control.
Assay [12] concerns Serine/threonine-protein kinase D1 (Homo sapiens), Q15139 [UNDEFINED MUTATION]. Kind of assay: Inhibition of recombinant full-length human PKCmu R135A mutant assessed as residual activity at 1 uM using KKLNRTLSVA as substrate incubated for 40 mins in presence of [gamma33P]ATP by scintillation counting based radiometry assay relative to control.
Assay [13] addresses Cyclin-dependent kinase 2/cyclin E1 (Homo sapiens) (UniProt P24864+P24941). Briefly: Inhibition of recombinant full length human CDK2/CyclinE assessed as residual activity at 1 uM using Histone H1 as substrate incubated for 40 mins in presence of [gamma-33ATP] by scintillation counting based radiometry assay relative to control. It is filed as protein-complex assay.
In assay [14] the target is Protein kinase C theta type (Homo sapiens) (UniProt Q04759). Briefly: Inhibition of recombinant full length human PKCtheta assessed as residual activity at 1 uM using histone H1 as substrate measured after 40 mins in presence of [gamma33P]ATP by scintillation counting method relative to control.
Assay [15] deals with Serine/threonine-protein kinase PLK1 (Homo sapiens) (UniProt P53350). Briefly: Inhibition of recombinant full-length human Plk1 assessed as residual activity at 1 uM using casein as substrate measured after 40 mins in presence of [gamma33P]ATP by scintillation counting method relative to control.
The target of assay [16] is Aurora kinase C (Homo sapiens) (UniProt Q9UQB9). Kind of assay: Inhibition of recombinant human Aurora C (35 to end residues) assessed as residual activity at 1 uM using AKRRRLSSLRA as substrate incubated for 40 mins in presence of [gamma-33ATP] by scintillation counting based radiometry assay relative to control.
In assay [17] the target is Phosphatidylinositol 4-phosphate 5-kinase type-1 gamma (Homo sapiens) (UniProt O60331). Kind of assay: Inhibition of recombinant full-length human PIP5K1gamma at 1 uM assessed as residual activity at 1 uM using phosphatidylinositol 4-phosphate as substrate measured after 40 mins by HTRF assay. Background: In TR-FRET formats the signal depends on donor and acceptor labels being close together.

Assay [18] addresses Mitogen-activated protein kinase kinase kinase kinase 5 (Homo sapiens) (UniProt Q9Y4K4). Briefly: Inhibition of recombinant human MAP4K5 assessed as residual activity at 1 uM using myelin basic protein as substrate incubated for 40 mins in presence of [gamma-33ATP by scintillation counting based radiometry assay relative to control.
Assay [19] addresses Mitogen-activated protein kinase 9 (Homo sapiens) (UniProt P45984). Briefly: Inhibition of human JNK2alpha2 assessed as residual activity at 1 uM using ATF2 as substrate after 40 mins by [gamma-33ATP] radiometric assay relative to control.
Assay [20] concerns the target Dual specificity tyrosine-phosphorylation-regulated kinase 2 (Homo sapiens) (UniProt Q92630). Briefly: Inhibition of recombinant human DYRK2 assessed as residual activity at 1 uM using casein as substrate at 40 mins in presence of [gamma-33ATP] by scintillation counting based radiometry assay relative to control.
Assay [21] relates to RAC-gamma serine/threonine-protein kinase (Homo sapiens), Q9Y243 [S472D]. Kind of assay: Inhibition of recombinant human PKBgamma S472D mutant (117 to end residues) assessed as residual activity at 1 uM using GRPRTSSFAEGKK as substrate incubated for 40 mins in presence of [gamma33P]ATP by scintillation counting based radiometry assay relative to control.
Assay [22] deals with Homeodomain-interacting protein kinase 4 (Homo sapiens) (UniProt Q8NE63). Kind of assay: Inhibition of human HIPK4 assessed as residual activity at 1 uM using RRRFRPASPLRGPPK as substrate after 40 mins by [gamma-33ATP] radiometric assay relative to control.

Chain of Proto-oncogene tyrosine-protein kinase receptor Ret (Homo sapiens), P07949 [V804L] (P07949 whole entry V804L, the tested form may be a part): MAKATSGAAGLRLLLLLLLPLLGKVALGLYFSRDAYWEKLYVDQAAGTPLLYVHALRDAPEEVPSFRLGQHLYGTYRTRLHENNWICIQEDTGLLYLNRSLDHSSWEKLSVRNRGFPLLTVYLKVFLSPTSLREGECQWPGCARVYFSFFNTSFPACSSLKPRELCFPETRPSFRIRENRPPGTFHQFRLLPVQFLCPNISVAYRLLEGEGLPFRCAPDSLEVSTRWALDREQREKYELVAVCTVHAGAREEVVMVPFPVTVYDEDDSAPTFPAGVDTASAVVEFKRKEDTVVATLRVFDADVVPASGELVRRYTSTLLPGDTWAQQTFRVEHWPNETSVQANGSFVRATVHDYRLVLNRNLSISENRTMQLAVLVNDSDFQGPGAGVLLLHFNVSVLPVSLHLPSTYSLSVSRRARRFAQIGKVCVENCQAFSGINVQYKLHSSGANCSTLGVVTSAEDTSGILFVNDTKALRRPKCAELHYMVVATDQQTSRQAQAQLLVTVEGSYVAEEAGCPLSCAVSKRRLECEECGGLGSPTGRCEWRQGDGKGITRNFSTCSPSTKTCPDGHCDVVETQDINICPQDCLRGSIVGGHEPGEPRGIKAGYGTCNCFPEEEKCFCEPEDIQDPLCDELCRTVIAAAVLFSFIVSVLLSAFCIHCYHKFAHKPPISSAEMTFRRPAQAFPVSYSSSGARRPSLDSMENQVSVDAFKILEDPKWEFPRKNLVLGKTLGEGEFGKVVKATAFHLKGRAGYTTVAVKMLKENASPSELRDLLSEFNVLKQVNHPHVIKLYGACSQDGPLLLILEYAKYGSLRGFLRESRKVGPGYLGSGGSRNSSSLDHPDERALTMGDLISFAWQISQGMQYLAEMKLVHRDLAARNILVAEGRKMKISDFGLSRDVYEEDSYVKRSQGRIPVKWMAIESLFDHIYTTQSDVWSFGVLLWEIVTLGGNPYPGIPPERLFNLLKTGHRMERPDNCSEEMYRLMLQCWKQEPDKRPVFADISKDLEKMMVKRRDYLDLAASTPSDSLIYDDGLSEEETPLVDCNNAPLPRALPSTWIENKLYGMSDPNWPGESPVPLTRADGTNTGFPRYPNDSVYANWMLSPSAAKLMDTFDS
Chain of Mitogen-activated protein kinase kinase kinase kinase 5 (Homo sapiens) (Q9Y4K4 whole entry, looked up): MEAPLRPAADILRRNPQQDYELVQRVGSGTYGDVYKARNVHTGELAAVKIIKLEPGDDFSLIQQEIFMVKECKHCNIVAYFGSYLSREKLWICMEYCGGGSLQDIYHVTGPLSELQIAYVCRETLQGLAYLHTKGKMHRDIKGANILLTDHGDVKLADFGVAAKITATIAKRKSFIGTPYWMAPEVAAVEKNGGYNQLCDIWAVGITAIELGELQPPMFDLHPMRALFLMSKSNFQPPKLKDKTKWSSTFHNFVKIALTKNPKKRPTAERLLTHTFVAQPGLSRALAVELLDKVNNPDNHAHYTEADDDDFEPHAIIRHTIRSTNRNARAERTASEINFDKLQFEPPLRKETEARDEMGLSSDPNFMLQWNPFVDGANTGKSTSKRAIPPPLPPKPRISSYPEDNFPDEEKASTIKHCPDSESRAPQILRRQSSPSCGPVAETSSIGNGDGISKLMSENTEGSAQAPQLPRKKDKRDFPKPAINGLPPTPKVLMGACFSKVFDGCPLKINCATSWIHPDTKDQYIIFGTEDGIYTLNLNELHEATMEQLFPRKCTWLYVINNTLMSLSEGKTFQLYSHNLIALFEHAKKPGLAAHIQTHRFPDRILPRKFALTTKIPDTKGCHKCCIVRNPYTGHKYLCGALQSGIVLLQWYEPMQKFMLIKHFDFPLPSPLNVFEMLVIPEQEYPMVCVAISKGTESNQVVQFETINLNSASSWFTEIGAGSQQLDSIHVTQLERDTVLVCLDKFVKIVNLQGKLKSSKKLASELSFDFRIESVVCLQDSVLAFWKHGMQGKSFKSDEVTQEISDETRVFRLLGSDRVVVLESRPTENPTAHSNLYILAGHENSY
Chain of Dual specificity tyrosine-phosphorylation-regulated kinase 2 (Homo sapiens) (Q92630 whole entry): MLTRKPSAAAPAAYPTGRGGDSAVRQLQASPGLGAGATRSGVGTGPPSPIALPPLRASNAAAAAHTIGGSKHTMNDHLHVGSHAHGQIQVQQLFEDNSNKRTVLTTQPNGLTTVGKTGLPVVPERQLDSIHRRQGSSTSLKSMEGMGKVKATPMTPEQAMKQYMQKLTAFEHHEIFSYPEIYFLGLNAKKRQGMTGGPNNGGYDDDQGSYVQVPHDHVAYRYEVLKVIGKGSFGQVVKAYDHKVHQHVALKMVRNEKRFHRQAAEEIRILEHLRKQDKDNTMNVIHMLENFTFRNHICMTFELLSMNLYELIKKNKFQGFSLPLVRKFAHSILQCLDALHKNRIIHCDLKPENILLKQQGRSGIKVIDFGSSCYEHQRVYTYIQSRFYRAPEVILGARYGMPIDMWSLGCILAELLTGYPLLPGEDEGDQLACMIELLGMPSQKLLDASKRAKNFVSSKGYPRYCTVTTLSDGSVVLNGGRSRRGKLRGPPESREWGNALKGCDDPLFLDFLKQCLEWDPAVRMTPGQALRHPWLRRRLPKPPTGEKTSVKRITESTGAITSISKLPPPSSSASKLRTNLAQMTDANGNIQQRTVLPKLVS
Chain of 5'-AMP-activated protein kinase catalytic subunit alpha-2 (Homo sapiens) (P54646 whole entry, looked up): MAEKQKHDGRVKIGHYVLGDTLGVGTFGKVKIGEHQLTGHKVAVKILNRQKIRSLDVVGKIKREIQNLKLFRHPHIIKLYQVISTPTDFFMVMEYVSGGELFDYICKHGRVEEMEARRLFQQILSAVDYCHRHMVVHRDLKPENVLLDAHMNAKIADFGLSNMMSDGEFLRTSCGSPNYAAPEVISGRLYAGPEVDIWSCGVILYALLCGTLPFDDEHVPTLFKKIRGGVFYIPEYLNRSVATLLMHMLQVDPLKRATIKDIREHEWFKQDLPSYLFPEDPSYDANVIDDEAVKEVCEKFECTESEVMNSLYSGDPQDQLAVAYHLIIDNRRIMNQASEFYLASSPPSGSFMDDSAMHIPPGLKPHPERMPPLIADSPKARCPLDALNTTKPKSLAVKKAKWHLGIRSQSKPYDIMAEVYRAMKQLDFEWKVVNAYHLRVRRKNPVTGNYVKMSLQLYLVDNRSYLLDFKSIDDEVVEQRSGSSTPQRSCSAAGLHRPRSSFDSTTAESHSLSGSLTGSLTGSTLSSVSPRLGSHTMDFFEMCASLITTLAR
Chain of RAC-gamma serine/threonine-protein kinase (Homo sapiens), Q9Y243 [S472D] (Q9Y243 whole entry S472D): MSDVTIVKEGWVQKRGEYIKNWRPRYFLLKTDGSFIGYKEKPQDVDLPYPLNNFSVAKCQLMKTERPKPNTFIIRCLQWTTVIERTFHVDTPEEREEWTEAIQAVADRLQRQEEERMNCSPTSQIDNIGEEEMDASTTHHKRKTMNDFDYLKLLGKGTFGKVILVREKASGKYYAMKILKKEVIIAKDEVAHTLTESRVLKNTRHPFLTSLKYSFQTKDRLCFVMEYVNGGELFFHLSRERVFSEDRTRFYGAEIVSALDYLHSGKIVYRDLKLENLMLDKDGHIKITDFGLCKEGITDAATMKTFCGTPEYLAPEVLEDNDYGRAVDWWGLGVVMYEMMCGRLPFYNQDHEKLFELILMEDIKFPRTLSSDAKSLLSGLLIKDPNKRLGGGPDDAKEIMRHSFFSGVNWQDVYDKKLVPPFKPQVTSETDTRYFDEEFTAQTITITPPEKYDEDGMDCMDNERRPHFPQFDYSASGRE
Chain of Phosphatidylinositol 4-phosphate 5-kinase type-1 gamma (Homo sapiens) (O60331 whole entry): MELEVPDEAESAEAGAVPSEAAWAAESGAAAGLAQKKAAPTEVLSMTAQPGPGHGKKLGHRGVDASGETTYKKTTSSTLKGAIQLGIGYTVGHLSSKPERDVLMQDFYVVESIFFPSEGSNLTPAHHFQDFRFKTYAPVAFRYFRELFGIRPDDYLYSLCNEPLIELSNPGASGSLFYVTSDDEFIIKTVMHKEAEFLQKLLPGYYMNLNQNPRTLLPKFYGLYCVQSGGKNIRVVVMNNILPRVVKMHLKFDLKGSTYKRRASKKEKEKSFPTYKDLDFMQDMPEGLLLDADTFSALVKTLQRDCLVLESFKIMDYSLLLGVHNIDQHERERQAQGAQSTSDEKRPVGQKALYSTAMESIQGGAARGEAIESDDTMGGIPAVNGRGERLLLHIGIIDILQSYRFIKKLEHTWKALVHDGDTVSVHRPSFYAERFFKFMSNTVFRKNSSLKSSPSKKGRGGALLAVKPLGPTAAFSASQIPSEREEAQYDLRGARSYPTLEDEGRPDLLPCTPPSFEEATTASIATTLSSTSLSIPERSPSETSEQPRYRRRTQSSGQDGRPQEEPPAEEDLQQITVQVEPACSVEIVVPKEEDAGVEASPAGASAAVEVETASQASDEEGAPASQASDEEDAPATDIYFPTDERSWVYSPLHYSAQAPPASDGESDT
Chain of Aurora kinase C (Homo sapiens) (Q9UQB9 whole entry): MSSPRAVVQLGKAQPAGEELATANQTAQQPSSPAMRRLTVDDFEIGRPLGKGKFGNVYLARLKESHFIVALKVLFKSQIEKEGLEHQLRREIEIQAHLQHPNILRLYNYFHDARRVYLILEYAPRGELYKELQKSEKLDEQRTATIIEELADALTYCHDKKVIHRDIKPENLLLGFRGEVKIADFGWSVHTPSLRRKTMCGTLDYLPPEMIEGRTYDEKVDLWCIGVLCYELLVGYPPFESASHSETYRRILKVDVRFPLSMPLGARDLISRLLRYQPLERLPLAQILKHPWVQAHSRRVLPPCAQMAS
Chain of Mitogen-activated protein kinase 9 (Homo sapiens) (P45984 whole entry, looked up): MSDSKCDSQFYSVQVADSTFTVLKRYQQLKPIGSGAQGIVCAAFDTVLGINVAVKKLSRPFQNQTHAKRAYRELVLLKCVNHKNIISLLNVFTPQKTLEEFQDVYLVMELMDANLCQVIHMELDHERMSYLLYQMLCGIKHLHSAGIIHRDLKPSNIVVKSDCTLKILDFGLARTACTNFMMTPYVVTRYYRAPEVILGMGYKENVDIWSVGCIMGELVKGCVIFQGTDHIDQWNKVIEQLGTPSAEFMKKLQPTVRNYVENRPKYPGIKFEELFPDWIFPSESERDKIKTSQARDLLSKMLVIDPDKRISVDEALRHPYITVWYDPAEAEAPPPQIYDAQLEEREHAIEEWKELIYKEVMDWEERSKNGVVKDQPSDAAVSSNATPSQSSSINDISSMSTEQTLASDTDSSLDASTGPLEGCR

As to `C=CCOC(=O)c1cc(-c2ccc(/C=C3/NC(=S)NC3=O)o2)ccc1Cl`, the Activity in assay [1] was 107%; in assay [2], 98%; in assay [3] it was 92%; in [4] it was 73%; in assay [5], 33%; in [6], 110%. The Activity in assay [7] was 121%; in assay [8] it was 107%; in [9], 74%; in [10], 102%; in assay [11], 45%; in [12] it was 99%. The Activity in assay [13] was determined as 58%; in assay [14], 96%; in assay [15] it was 103%; in [16], 104%; in [17], 100%; in assay [18], 94%. Also, the Activity in assay [19] came to 109%; in assay [20], 91%; in assay [21] it was 72%; in [22] it was 97%.

As to `N=C1NC(=O)/C(=C\c2ccc(-c3cccc([N+](=O)[O-])c3)o2)S1`, the Activity in assay [1] was 95%; in assay [2], 97%; in assay [3], 85%; in [4] it was 72%; in [5], 44%; in assay [6], 92%. For the same molecule, the Activity stood at 78% in assay [7]; 105% in assay [8]; 51% in [9]; 95% in [10]; 55% in [11]; 97% in [12]. The Activity amounted to 62% in assay [13]; 101% in [14]; 99% in assay [15]; 109% in [16]; 101% in assay [17]; 95% in assay [18]. The Activity in [19] worked out at 103%; in assay [20] it was 82%; in [21] it was 100%; in assay [22] it was 92%.
